Laboratory results published in ChEMBL document CHEMBL1201862, “PubChem BioAssay data set” (2004).
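These data come from cells grown in 96-well plates and exposed to compound for 48 hours at five concentrations. GI50 marks 50% less growth.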 Calls of active or inactive are those of the source. Rule as the data show it: active = GI50 up to about 1.1 µM and inactive = higher.

What was measured:
Experiment in all cases: NCI-60 cell line screen, 48 h
COLO 205 = tested on: COLO 205
SK-MEL-28 = tested on: SK-MEL-28
BT-549 = tested on: BT-549
SK-OV-3 = tested on: SK-OV-3
UO-31 = tested on: UO-31
SW-620 = tested on: SW-620
EKVX = tested on: EKVX
M14 = tested on: M14
MCF7 = tested on: MCF7
MOLT-4 = tested on: MOLT-4
HOP-92 = tested on: HOP-92
OVCAR-5 = tested on: OVCAR-5
SN12C = tested on: SN12C
DU-145 = tested on: DU-145
HT-29 = tested on: HT-29
SNB-19 = tested on: SNB-19
LOX IMVI = tested on: LOX IMVI
UACC-62 = tested on: UACC-62
Malme-3M = tested on: Malme-3M
RXF 393 = tested on: RXF 393

| SMILES | GI50 (COLO 205) | GI50 (SK-MEL-28) | GI50 (BT-549) | GI50 (SK-OV-3) | GI50 (UO-31) | GI50 (SW-620) | GI50 (EKVX) | GI50 (M14) | GI50 (MCF7) | GI50 (MOLT-4) | GI50 (HOP-92) | GI50 (OVCAR-5) | GI50 (SN12C) | GI50 (DU-145) | GI50 (HT-29) | GI50 (SNB-19) | GI50 (LOX IMVI) | GI50 (UACC-62) | GI50 (Malme-3M) | GI50 (RXF 393) |
| --- | --- | --- | --- | --- | --- | --- | --- | --- | --- | --- | --- | --- | --- | --- | --- | --- | --- | --- | --- | --- |
| Cc1cc(O)nc2cc3oc4ccccc4c3cc12 | 16.7 µM (inactive) | > 100 µM (inactive) | > 100 µM (inactive) | > 57.9 µM (inactive) | > 27.5 µM (inactive) | 35.2 µM (inactive) | 0.0448 µM (active) | > 100 µM (inactive) | 4.55 µM (inactive) | 3.71 µM (inactive) | > 100 µM (inactive) | > 83.2 µM (inactive) | > 100 µM (inactive) | > 100 µM (inactive) | 44.8 µM (inactive) | > 50.6 µM (inactive) | > 28.2 µM (inactive) | 17.5 µM (inactive) | > 30.1 µM (inactive) | > 100 µM (inactive) |
| COc1cc2c(cc1OC)C(=O)/C(=C/c1ccc(Cl)cc1)CC2 | > 10 µM (inactive) | > 10 µM (inactive) | > 10 µM (inactive) | > 10 µM (inactive) | > 10 µM (inactive) | > 10 µM (inactive) | > 10 µM (inactive) | > 10 µM (inactive) | > 10 µM (inactive) | > 10 µM (inactive) | > 10 µM (inactive) | > 10 µM (inactive) | > 10 µM (inactive) | > 10 µM (inactive) | > 10 µM (inactive) | > 10 µM (inactive) | > 10 µM (inactive) | > 10 µM (inactive) | > 10 µM (inactive) | > 10 µM (inactive) |
| Cc1ccc(C(=O)N/N=C(\N=N\c2cccc(Cl)c2)c2ccc(N(CCC#N)CCC#N)cc2C)cc1 | > 100 µM (inactive) | > 100 µM (inactive) | > 100 µM (inactive) | > 100 µM (inactive) | > 100 µM (inactive) | > 100 µM (inactive) | > 100 µM (inactive) | > 100 µM (inactive) | > 100 µM (inactive) | 41.5 µM (inactive) | > 100 µM (inactive) | > 100 µM (inactive) | > 100 µM (inactive) | > 100 µM (inactive) | 90.2 µM (inactive) | > 100 µM (inactive) | > 100 µM (inactive) | > 100 µM (inactive) | > 100 µM (inactive) | 29.4 µM (inactive) |
| CCOc1cc(NC(C)=O)ccc1C(=O)NNC(=O)c1ccccc1OC(C)=O | 21.5 µM (inactive) | 21.5 µM (inactive) | 19.5 µM (inactive) | 11.8 µM (inactive) | 3.86 µM (inactive) | 4.01 µM (inactive) | 5.18 µM (inactive) | 7.18 µM (inactive) | 6.07 µM (inactive) | 0.995 µM (active) | 29.9 µM (inactive) | 10.2 µM (inactive) | 5.24 µM (inactive) | 8.28 µM (inactive) | 34 µM (inactive) | 21.9 µM (inactive) | 5.45 µM (inactive) | 8.36 µM (inactive) | 21.7 µM (inactive) | 3.41 µM (inactive) |
| Nc1cccc(C2CCCc3c2[nH]c2ccccc32)c1 (stereo not given) | 19.8 µM (inactive) | 26.5 µM (inactive) | 18.4 µM (inactive) | 23.9 µM (inactive) | 26 µM (inactive) | 17.4 µM (inactive) | 18.5 µM (inactive) | 22.3 µM (inactive) | 21.8 µM (inactive) | 20.6 µM (inactive) | 16.9 µM (inactive) | 16.3 µM (inactive) | 17 µM (inactive) | 27 µM (inactive) | 14.6 µM (inactive) | 12 µM (inactive) | 12.4 µM (inactive) | 15.6 µM (inactive) | 18.1 µM (inactive) | 15.3 µM (inactive) |
| CC(Cc1cccc2c1Nc1ccccc1S2)N(C)CCO (stereo not given) | > 100 µM (inactive) | > 100 µM (inactive) | > 100 µM (inactive) | > 100 µM (inactive) | > 100 µM (inactive) | > 100 µM (inactive) | > 100 µM (inactive) | > 100 µM (inactive) | > 100 µM (inactive) | > 100 µM (inactive) | > 100 µM (inactive) | > 100 µM (inactive) | > 100 µM (inactive) | > 100 µM (inactive) | > 100 µM (inactive) | > 100 µM (inactive) | > 100 µM (inactive) | > 100 µM (inactive) | > 100 µM (inactive) | > 100 µM (inactive) |
| O=C1C(Cl)=C(N2CCN(c3ccccn3)CC2)C(=O)c2c(O)ccc(O)c21 | 1.43 µM (inactive) | 1.9 µM (inactive) | 1.9 µM (inactive) | 8.32 µM (inactive) | 1.87 µM (inactive) | 0.665 µM (active) | 4.27 µM (inactive) | 1.46 µM (inactive) | 1.42 µM (inactive) | 0.456 µM (active) | 1.21 µM (inactive) | 6.08 µM (inactive) | 1.88 µM (inactive) | 3.66 µM (inactive) | 1.28 µM (inactive) | 5.92 µM (inactive) | 0.157 µM (active) | 0.752 µM (active) | 1.65 µM (inactive) | 1.74 µM (inactive) |
| CCN1/C(=C/c2ccc3ccccc3[n+]2CC)C=Cc2ccccc21 | 0.19 µM (active) | 1.15 µM (inactive) | 1.69 µM (inactive) | 2.18 µM (inactive) | 3.09 µM (inactive) | 0.762 µM (active) | 1.72 µM (inactive) | 0.851 µM (active) | 0.367 µM (active) | 0.641 µM (active) | 1.44 µM (inactive) | 5.37 µM (inactive) | 0.649 µM (active) | 0.867 µM (active) | 1.14 µM (inactive) | 0.541 µM (active) | 0.561 µM (active) | 0.767 µM (active) | 1.39 µM (inactive) | 2.12 µM (inactive) |
| O=C(COc1ccc(OCC(=O)N2C(=O)CN(c3ccccc3)C2=S)cc1)N1C(=O)CN(c2ccccc2)C1=S | > 100 µM (inactive) | > 100 µM (inactive) | > 61.4 µM (inactive) | > 54.3 µM (inactive) | > 56.6 µM (inactive) | > 100 µM (inactive) | > 53.6 µM (inactive) | > 57.9 µM (inactive) | > 54.3 µM (inactive) | > 25 µM (inactive) | > 53.2 µM (inactive) | > 50.9 µM (inactive) | > 59.2 µM (inactive) | > 61 µM (inactive) | > 56.9 µM (inactive) | > 48.4 µM (inactive) | > 25 µM (inactive) | > 56.1 µM (inactive) | > 25 µM (inactive) | 55.8 µM (inactive) |
| CN(C)Cc1cc(/N=N/c2ccc(Cl)cc2)ccc1O | 3.81 µM (inactive) | 16 µM (inactive) | 10.7 µM (inactive) | 18.7 µM (inactive) | 11.7 µM (inactive) | 16.4 µM (inactive) | 18.3 µM (inactive) | 9.75 µM (inactive) | 17.4 µM (inactive) | 15.2 µM (inactive) | 4.46 µM (inactive) | 12.1 µM (inactive) | 16.9 µM (inactive) | 25.1 µM (inactive) | 12.6 µM (inactive) | 17.3 µM (inactive) | 11.4 µM (inactive) | 16 µM (inactive) | 14 µM (inactive) | 13.9 µM (inactive) |
